{"source": "patent US11491184B2", "about": "“Liquids rich in noble gas and methods of their preparation and use” (THE BOARD OF REGENTS OF THE UNIVERSITY OF TEXAS SYSTEM, priority 2013, dated 2022)", "key": {"[1]": {"settings": "chronic oral administration; cited from earlier work"}, "[2]": {"settings": "cited from earlier work; for concentration dissolved in water: standard temperature and pressure"}, "[3]": {"test": "Measurement of Xe dissolved / encapsulated in water and hp-beta-CD", "format": "physicochemical", "settings": "3 atm", "procedure": "Xenon was enclosed into a soluble caged molecules (e.g., cyclodextrin). To remove possible residue molecules from cage, the caged molecular was baked at 40-80° C. under vacuum for overnight. To enclose xenon into caged molecules, xenon was incubated with caged molecular in a sealed vial under 2-10 atm pressure at […]. for overnight to 3 days.\nPure water was degassed under 20-80 mbar vacuum at room temperature for overnight. Xenon (99.999% Medical grade, Matheson Tri-Gas®, Houston, Tex., USA) was re-dissolved into degassed water by pressure water with 2-10 atm xenon gas at 4° C. for overnight to 3 days.\nXe-rich-water is composed of Xe directly dissolved in water and caging with hydroxypropyl-beta-cyclodextrin (hp-beta-CD) in water. […]\nTo measure the amount of Xe dissolved in a Xe-rich-water. […] The solution was then warmed up to 80° C. in a vial with a silicone-rubber seal (Thermo Scientific SepraSeal® (Thermo Scientific, Hudson, N.H., USA) sealed top for 2 hours. After cooling down to room temperature, a syringe with a 17 gauge needle was inserted into a vial through the silicone-rubber seal. The released Xe gas present in the top spacer formed pressure, which pushed Xe gas into the syringe. The amount of Xe released into syringe was then measured."}, "[4]": {"system": "apolipoprotein-E (Apo E) knockout (KO) mice", "test": "Heart weight normalized to body weight after Xe-rich solution", "format": "in vivo", "settings": "KO6w Xe vs KO6w vehicle, 6 weeks", "text": "(§1) All animal studies were approved by the Animal Welfare Committee at The University of Texas Health Science Center at Houston. C57BL/6J wild type (WT) and apolipoprotein-E (Apo E) knockout (KO) mice were purchased from Jackson Laboratory (Bar Harbor, Me., USA), see, e.g., Meir et al., 2004, incorporated herein by reference. The control WT mice used were C57BL/6J, which share the same genetic background with the Apo E KO mice. Six- to eight-month-old male WT and KO mice were fed control or high fat diet (Harlan Laboratories, USA) and administered control or Xe-rich solution (200 μl, once a day) and water drink for 6 weeks, since the Apo E KO mice type fed a high fat diet develop atherosclerotic lesions.\n(§2) Animals were divided into 5 groups (see experiment setting). Echocardiography was used to assess cardiac dimensions and function at baseline, and at 6-weeks following the Xe exposure (FIGS. 1 and 2; Table 1). Cardiac size of WT and KO hearts were determined with LV mass (corrected) and normalized to body weight (mg/g) following 6-weeks of the Xe exposure (FIG. 3A)."}, "[5]": {"test": "Stated solubility / dissolved concentration of gases and hp-beta-CD", "format": "physicochemical", "settings": "room temperature and 1 atm"}, "[6]": {"system": "apolipoprotein-E (Apo E) knockout (KO) mice", "test": "Echocardiographic measurements after oral Xe-rich solution, Apo E KO mice on high fat diet", "format": "in vivo", "text": "as §1\n(§3) Baseline measurements by echocardiography were obtained before feeding with the high fat diet. Cardiac morphology and function were assessed by serial M-mode echocardiography using a Vevo 770 Imaging System (VisualSonics Inc., Ontario, Canada) equipped with a 30 MHz microprobe. M-mode ventricular measurements were taken at 6-weeks after the feeding. Electrocardiographic (ECG) data was obtained. Echo data (HR, heart rate; LVID, left ventricular internal dimension; IVS, intra-ventricular septum; LVPW, left ventricular posterior wall; FS, fractional shortening; SV, stroke volume; EF, ejection fraction; CO, cardiac output; LV Vol, LV volume; LV mass corrected) were analyzed with the analysis software (VisualSonics Inc., Ontario, Canada).\nas §2"}, "[7]": {"system": "apolipoprotein-E (Apo E) knockout (KO) mice", "test": "Electrocardiographic (ECG) data after Xe-rich solution", "format": "in vivo", "settings": "KO6w treated with Xe, 6-weeks time point", "text": "as §1\nas §3, with “M-mode ventricular measurements were taken at 6-weeks after the feeding. Electrocardiographic (ECG) data was obtained.” left out"}, "[8]": {"system": "Brain-derived Neurotrophic Factor (BDNF)", "test": "BDNF Sandwich ELISA of heart and brain after Xe-rich solution", "format": "in vivo, mice", "settings": "KO6w Xe vs vehicle, 6 weeks", "text": "All animal studies were approved by the Animal Welfare Committee at The University of Texas Health Science Center at Houston. C57BL/6J wild type (WT) and apolipoprotein-E (Apo E) knockout (KO) mice were purchased from Jackson Laboratory (Bar Harbor, Me., USA), see, e.g., Meir et al., 2004, incorporated herein by reference. The control WT mice used were C57BL/6J, which share the same genetic background with the Apo E KO mice. […]\nFresh frozen heart and brain tissues were slightly thawed on crushed ice to allow dissection of the hearts and brains. […] The protein concentration was determined using a Bradford Protein Assay (Bio-Rad, Calif., USA).\nExcept for the heart and brain extracts, the samples (such as plasma) were thawed and clarified at 12,000 rpm for 10 min at 4° C. prior to ELISA assays for β-amyloid per the manufacturer's instructions. BDNF and β-amyloid peptide (Aβ1-40) content were determined by using BDNF Sandwich ELISA Kit (Millipore Corporation, MA, USA) and a Mouse/Rat Amyloid β (1-40) High Specific ELISA Assay Kit (IBLAmerican, Minneapolis, Minn., USA). […] was measured by using SpectroMax Microplate reader (Bio-Tek Instruments) at 450 nm. All samples were analyzed in duplicate."}, "[9]": {"settings": "KO6w Xe vs KO6w vehicle, 6 week time point"}}, "data": [{"compound": "cyclodextrin", "values": [{"measurement": "acceptably safe dose", "setting": "[1]", "result": "about 1,000 mg/kg/day"}]}, {"compound": "CC(O)COC[C@H]1O[C@@H]2O[C@H]3[C@H](O)[C@@H](O)[C@@H](O[C@H]4[C@H](O)[C@@H](O)[C@@H](O[C@H]5[C@H](O)[C@@H](O)[C@@H](O[C@H]6[C@H](O)[C@@H](O)[C@@H](O[C@H]7[C@H](O)[C@@H](O)[C@@H](O[C@H]8[C@H](O)[C@@H](O)[C@@H](O[C@H]1[C@H](O)[C@H]2O)O[C@@H]8COCC(C)O)O[C@@H]7COCC(C)O)O[C@@H]6COCC(C)O)O[C@@H]5COCC(C)O)O[C@@H]4COCC(C)O)O[C@@H]3COCC(C)O", "note": "(stereo partly drawn) [hp-beta-CD, Hydroxypropyl-beta-cyclodextrin]", "values": [{"measurement": "Solubility", "setting": "[2]", "result": 330, "unit": "mg/mL"}]}, {"compound": "[Ar]", "note": "[Ar, Argon]", "values": [{"measurement": "concentration dissolved in water", "setting": "[2]", "result": "about 55 μg/ml"}]}, {"compound": "[Xe]", "note": "[Xe, Xenon]", "values": [{"measurement": "xenon encapsulated in a hp-beta-CD cage", "setting": "[3]; −80° C., 0.5 mg/ml of hp-beta-CD", "result": 5, "unit": "mL"}, {"measurement": "xenon gas dissolved into 5 ml water", "setting": "[3]; degassed water, pure xenon gas, 4° C., 4 hours to overnight", "result": 6.5, "unit": "mL"}, {"measurement": "heart weight normalized to body weight", "setting": "[4]", "result": "Decreased"}, {"measurement": "Xe in an oil, such as olive oil", "setting": "[5]", "result": "about 12 mg Xe/ml"}, {"measurement": "increase in LV mass (corrected)", "setting": "[6]; KO6w Xe vs KO6w vehicle and KO6w control, 6 weeks, Xe-rich solution 200 μl once a day", "result": "blocked"}, {"measurement": "wall thickness increase (IVS, LVPW)", "setting": "[6]; KO6w Xe vs KO6w vehicle and KO6w/control, 6 weeks", "result": "significantly blocked"}, {"measurement": "decrease in LV ejection fraction (EF)", "setting": "[6]; [9]", "result": "significantly blocked"}, {"measurement": "decrease in LV fractional shortening (FS)", "setting": "[6]; [9]", "result": "significantly blocked"}, {"measurement": "decrease in cardiac output (CO)", "setting": "[6]; [9]", "result": "significantly blocked"}, {"measurement": "heart rate (HR) increase, in words", "setting": "[6]; KO6w given Xe, 6 weeks", "result": "blocked"}, {"measurement": "concentration dissolved in water", "setting": "[2]", "result": "about 600 μg/ml"}, {"measurement": "ECG changes in T wave, ST segment and QRS complex (myocardial ischemia)", "setting": "[7]", "result": "did not occur"}, {"measurement": "relative BDNF levels in heart", "setting": "[8]", "result": "further increased"}]}]}
